Data on five compounds can be found in patent publication US20030215878A1, “Novel G protein-coupled purinergic receptor, GAVE17” (priority 2002, published 2003).

pKd: −log10 of the molar value.

Assay [1] deals with T1, GAVE17 (Homo sapiens, UniProt Q9BPV8).
T1 sequence (Q9BPV8 1-333 isoform Q9BPV8-2): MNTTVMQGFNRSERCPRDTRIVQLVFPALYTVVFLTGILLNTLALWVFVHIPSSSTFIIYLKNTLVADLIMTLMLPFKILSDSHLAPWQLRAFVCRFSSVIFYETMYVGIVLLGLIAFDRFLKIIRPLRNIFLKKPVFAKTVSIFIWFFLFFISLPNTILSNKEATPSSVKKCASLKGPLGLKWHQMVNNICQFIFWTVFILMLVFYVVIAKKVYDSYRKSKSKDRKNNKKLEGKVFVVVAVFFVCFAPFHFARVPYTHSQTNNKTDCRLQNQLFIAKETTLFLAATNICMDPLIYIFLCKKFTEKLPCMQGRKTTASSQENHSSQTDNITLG
The experiment in a line: Nucleotide ligand activation of and affinity for GAVE17 in transformed NIH 3T3 cells. The assay is classed as cell-based. On the set-up: expressed in transfected cells; host or cells: NIH 3T3. The following applies: for pKd: transformed NIH 3T3 cells.

For assay [2], the target named is T1, GAVE17. The experiment in a line: Agonist assay utilizing FLIPR, NIH 3T3 cell line transfected with hGAVE17 (Ca2+ fluorescence). The assay is classed as cell-based. On the set-up: host or cells: Gα16-coupled NIH 3T3. The settings on record: NIH313 cell line transfected with PEAK8 expression vector comprising SEQ ID NO:1; FIGS. 3a-d. The source says: To screen for agonists of human GAVE17, hGAVE17 is coupled artificially to a Gq mechanism. Activation of the Gq mechanism stimulates the release of Ca^2+ from sarcoplasmic reticulum vesicles within the cell. The Ca^2+ is released into the cytoplasm where it can be detected using Ca^2+ chelating dyes. A Fluorometric Imaging Plate Reader or FLIPR® apparatus (Molecular Devices) is used to monitor any resulting changes in fluorescence. The activity of an agonist is reflected by an increase in fluorescence.
In a particular example, NIH 3T3 cells expressing hGAVE17 are pre-engineered to express an indiscriminate form of Gq protein (Gα16). To prepare such cells, Gα16-coupled NIH 3T3 cells are obtained commercially (Molecular Devices LIVEWARE™ cells, Catalog No. RD-HGA16) and the protocol in Example 2 followed to facilitate expression of hGAVE17 in those cells.
The cells are maintained in log phase of growth at 37° C. and 5% CO2 in F12 Ham's media (Gibco/BRL, Catalog No. 11765-054) containing 10% fetal bovine serum, 100 lU/ml penicillin (Gibco/BRL, Catalog No. 15140-148), 100 μg/ml streptomycin (Catalog No. 15140-148, Gibco/BRL), 400 μg/ml genetecin (G418) (Gibco/BRL, Catalog No. 10131-035) and 200 μg/ml zeocin (Invitrogen, Catalog No. R250-05). One day prior to an assay, 12,500 cells/well of the NIH 3T3 cells are plated onto 384-well clear-bottomed assay plates with a well volume of 50 μl (Greiner/Marsh, Catalog No. N58102) using a 96/384 Multidrop device (Labsystems, Type 832). The cells are incubated at 37° C. in a humidified 5% CO2 incubator (Forma Scientific CO2 water-jacketed incubator Model 3110).
The following stock solutions are prepared: a 1 M stock solution of Hepes (pH 7.5) (Gibco/BRL, Catalog No. 15630-080); a 250 mM stock solution of probenicid (Sigma, Catalog No. P8761) made in 1 N NaOH; and a 1 mM stock solution of Fluo 4-AM Dye (Molecular Probes, Catalog No. F1 4202) made in DMSO (Sigma D2650). Reaction buffer is prepared with 1000 ml Hank's balanced salt solution (Fisher/Mediatech, Catalog No. MT21023), 20 ml of the 1 M Hepes stock solution and 10 ml of the 250 mM probenicid stock solution. […]
A compound library containing possible agonists such as various purine derivatives or purine mimetics is tested at a concentration of 10 μM in physiological salt buffer. Changes in fluorescence are measured for 10 seconds prior to compound addition. After the addition of the compound, fluorescence is measured every second for the first minute followed by exposures taken every six seconds for a total experimental analysis time of three minutes. […]

For the compound `Nc1nc2c(ncn2[C@@H]2O[C@H](COP(=O)(O)OP(=O)(O)O)[C@@H](O)[C@H]2O)c(=O)[nH]1` [GDP], at GAVE17 [1], the “activation of GAVE17” value is given as “activate” and the pKd was 4.19.
Take `O=c1ccn([C@@H]2O[C@H](COP(=O)(O)OP(=O)(O)OP(=O)(O)O)[C@@H](O)[C@H]2O)c(=O)[nH]1` [UTP]: on GAVE17 [1], the “activation of GAVE17” value is given as “activate” and the pKd is 5.16. Also, at GAVE17 [2], the “agonist activity (FLIPR units vs log molar concentration)” value was “agonist activity”.
In the case of `O=c1ccn([C@@H]2O[C@H](COP(=O)(O)OP(=O)(O)O)[C@@H](O)[C@H]2O)c(=O)[nH]1` [UDP], on GAVE17 [1], the “activation of GAVE17” value is “activate” and the pKd was 5.00. Besides, on GAVE17 [2], the “agonist activity (FLIPR units vs log molar concentration)” value is “agonist activity”.
As for `Nc1ncnc2c1ncn2[C@@H]1O[C@H](COP(=O)(O)OP(=O)(O)OP(=O)(O)O)[C@@H](O)[C@H]1O` [ATP], at GAVE17 [1], the “activation of GAVE17” value is reported as “activate” and the pKd was 6.10. At GAVE17 [2], the “agonist activity (FLIPR units vs log molar concentration)” value is listed as “agonist activity”.
On the same counts, the results for `Nc1ncnc2c1ncn2[C@@H]1O[C@H](COP(=O)(O)OP(=O)(O)O)[C@@H](O)[C@H]1O` [ADP] are “activate”, 4.59 and “agonist activity”.
